From ChEMBL document CHEMBL4804284

Experiments:
Parameters in all cases: scale not given: the % may be the effect or the level left
[1] = molecular target: Ephrin type-B receptor 4 (Homo sapiens) (UniProt P54760); assay: Inhibition of DNA-tagged human EPHB4 assessed as percent of control at 50000 nM by qPCR analysis relative to control
[2] = molecular target: Ephrin type-A receptor 4 (Homo sapiens) (UniProt P54764); assay: Inhibition of DNA-tagged human EPHA4 assessed as percent of control at 50000 nM by qPCR analysis relative to control
[3] = molecular target: Fibroblast growth factor receptor 2 (Homo sapiens) (UniProt P21802); assay: Inhibition of DNA-tagged human FGFR2 assessed as percent of control at 50000 nM by qPCR analysis relative to control
Chain of Fibroblast growth factor receptor 2 (Homo sapiens) (P21802 22-821 limits assumed): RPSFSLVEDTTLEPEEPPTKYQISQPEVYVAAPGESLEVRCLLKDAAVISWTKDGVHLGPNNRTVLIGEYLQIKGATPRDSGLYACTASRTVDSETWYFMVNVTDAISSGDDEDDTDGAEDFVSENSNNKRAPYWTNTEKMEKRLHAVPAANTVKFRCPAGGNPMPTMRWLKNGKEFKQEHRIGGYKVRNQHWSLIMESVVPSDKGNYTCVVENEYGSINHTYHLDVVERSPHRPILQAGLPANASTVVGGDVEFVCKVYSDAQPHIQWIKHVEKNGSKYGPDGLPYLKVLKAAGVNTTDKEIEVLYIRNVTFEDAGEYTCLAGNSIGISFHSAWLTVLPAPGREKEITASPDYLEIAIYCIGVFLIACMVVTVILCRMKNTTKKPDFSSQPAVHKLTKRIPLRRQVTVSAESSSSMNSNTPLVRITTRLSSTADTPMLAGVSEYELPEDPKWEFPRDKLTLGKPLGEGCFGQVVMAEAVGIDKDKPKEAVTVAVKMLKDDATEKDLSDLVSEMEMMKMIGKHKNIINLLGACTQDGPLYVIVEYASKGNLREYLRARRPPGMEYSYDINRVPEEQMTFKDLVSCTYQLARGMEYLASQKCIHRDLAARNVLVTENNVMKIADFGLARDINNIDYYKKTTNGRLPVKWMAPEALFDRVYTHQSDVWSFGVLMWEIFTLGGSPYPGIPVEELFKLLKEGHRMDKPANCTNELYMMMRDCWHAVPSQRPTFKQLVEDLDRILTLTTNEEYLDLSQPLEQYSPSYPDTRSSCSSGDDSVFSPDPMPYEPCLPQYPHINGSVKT

[4] = molecular target: Serine/threonine-protein kinase RIO3 (Homo sapiens) (UniProt O14730); assay: Inhibition of DNA-tagged human RIOK3 assessed as percent of control at 50000 nM by qPCR analysis relative to control
[5] = molecular target: BMP-2-inducible protein kinase (Homo sapiens) (UniProt Q9NSY1); assay: Inhibition of DNA-tagged human BIKE assessed as percent of control at 50000 nM by qPCR analysis relative to control
[6] = molecular target: Mitogen-activated protein kinase 1 (Homo sapiens) (UniProt P28482); assay: Inhibition of DNA-tagged human ERK2 assessed as percent of control at 50000 nM by qPCR analysis relative to control
Chain of Mitogen-activated protein kinase 1 (Homo sapiens) (P28482 whole entry): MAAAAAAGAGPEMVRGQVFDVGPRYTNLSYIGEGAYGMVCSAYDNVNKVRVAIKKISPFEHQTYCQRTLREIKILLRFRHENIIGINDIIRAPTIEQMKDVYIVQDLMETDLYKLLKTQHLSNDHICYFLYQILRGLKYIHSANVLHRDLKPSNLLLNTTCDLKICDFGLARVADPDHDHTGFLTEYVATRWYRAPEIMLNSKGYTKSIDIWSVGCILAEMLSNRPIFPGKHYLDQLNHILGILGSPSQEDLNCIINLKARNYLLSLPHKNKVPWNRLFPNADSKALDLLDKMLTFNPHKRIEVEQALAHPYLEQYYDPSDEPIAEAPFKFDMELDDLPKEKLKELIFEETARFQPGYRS

[7] = molecular target: Myosin light chain kinase family member 4 (Homo sapiens) (UniProt Q86YV6); assay: Inhibition of DNA-tagged human MYLK4 assessed as percent of control at 50000 nM by qPCR analysis relative to control
[8] = molecular target: Tyrosine-protein kinase JAK1 (Homo sapiens) (UniProt P23458); assay: Inhibition of DNA-tagged human JAK1 JH1 catalytic domain assessed as percent of control at 50000 nM by qPCR analysis relative to control
Chain of Tyrosine-protein kinase JAK1 (Homo sapiens) (P23458 whole entry, the tested form may be a part): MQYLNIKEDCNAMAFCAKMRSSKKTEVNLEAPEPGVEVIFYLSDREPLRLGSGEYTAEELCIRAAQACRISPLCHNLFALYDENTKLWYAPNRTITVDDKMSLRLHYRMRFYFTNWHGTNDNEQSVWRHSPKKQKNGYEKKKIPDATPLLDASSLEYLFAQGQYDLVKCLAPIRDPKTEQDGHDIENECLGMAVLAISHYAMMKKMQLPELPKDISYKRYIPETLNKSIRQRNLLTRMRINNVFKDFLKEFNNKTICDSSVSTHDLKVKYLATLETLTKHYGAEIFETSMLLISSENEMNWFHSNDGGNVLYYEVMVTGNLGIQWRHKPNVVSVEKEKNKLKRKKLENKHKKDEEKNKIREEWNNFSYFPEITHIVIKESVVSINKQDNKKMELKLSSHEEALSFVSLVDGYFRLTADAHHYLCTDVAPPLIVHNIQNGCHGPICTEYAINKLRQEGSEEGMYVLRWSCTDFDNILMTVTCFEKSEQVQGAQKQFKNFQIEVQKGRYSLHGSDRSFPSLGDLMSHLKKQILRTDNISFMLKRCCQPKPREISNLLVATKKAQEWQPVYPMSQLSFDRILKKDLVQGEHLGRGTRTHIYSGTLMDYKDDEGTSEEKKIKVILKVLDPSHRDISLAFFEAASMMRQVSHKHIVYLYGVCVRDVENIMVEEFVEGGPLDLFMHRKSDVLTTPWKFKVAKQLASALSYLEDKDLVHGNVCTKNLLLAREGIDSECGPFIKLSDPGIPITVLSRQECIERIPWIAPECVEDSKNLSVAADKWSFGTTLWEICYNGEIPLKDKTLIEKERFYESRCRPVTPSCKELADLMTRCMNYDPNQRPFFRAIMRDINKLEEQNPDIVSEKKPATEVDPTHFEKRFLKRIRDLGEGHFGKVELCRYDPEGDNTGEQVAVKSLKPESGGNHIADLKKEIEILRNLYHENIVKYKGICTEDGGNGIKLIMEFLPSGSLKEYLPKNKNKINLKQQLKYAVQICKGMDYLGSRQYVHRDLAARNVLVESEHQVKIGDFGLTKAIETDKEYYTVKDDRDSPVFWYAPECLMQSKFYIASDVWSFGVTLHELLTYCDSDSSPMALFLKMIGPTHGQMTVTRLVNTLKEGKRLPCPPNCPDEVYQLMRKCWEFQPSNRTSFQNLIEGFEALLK

[9] = molecular target: Misshapen-like kinase 1 (Homo sapiens) (UniProt Q8N4C8); assay: Inhibition of DNA-tagged human MINK assessed as percent of control at 50000 nM by qPCR analysis relative to control
[10] = molecular target: Mitogen-activated protein kinase kinase kinase 7 (Homo sapiens) (UniProt O43318); assay: Inhibition of DNA-tagged human TAK1 assessed as percent of control at 50000 nM by qPCR analysis relative to control
[11] = molecular target: Tyrosine-protein kinase Srms (Homo sapiens) (UniProt Q9H3Y6); assay: Inhibition of DNA-tagged human SRMS assessed as percent of control at 50000 nM by qPCR analysis relative to control
Chain of Tyrosine-protein kinase Srms (Homo sapiens) (Q9H3Y6 whole entry): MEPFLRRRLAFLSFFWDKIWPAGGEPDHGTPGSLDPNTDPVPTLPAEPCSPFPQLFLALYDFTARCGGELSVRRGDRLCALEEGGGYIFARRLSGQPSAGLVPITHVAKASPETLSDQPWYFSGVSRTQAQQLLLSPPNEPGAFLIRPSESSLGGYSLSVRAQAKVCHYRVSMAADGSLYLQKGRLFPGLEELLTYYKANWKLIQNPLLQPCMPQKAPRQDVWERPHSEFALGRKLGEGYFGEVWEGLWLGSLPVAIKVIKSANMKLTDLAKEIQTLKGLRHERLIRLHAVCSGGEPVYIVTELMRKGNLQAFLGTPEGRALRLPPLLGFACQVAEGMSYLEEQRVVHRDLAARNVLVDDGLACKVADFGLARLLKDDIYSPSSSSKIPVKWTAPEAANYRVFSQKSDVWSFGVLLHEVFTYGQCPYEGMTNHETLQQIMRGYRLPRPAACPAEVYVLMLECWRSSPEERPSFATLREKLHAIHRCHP

[12] = molecular target: Myosin-IIIb (Homo sapiens) (UniProt Q8WXR4); assay: Inhibition of DNA-tagged human MYO3B assessed as percent of control at 50000 nM by qPCR analysis relative to control
[13] = molecular target: Cyclin-dependent kinase 18 (Homo sapiens) (UniProt Q07002); assay: Inhibition of DNA-tagged human PCTK3 assessed as percent of control at 50000 nM by qPCR analysis relative to control
[14] = molecular target: Serine/threonine-protein kinase TAO1 (Homo sapiens) (UniProt Q7L7X3); assay: Inhibition of DNA-tagged human TAOK1 assessed as percent of control at 50000 nM by qPCR analysis relative to control
Chain of Serine/threonine-protein kinase TAO1 (Homo sapiens) (Q7L7X3 whole entry): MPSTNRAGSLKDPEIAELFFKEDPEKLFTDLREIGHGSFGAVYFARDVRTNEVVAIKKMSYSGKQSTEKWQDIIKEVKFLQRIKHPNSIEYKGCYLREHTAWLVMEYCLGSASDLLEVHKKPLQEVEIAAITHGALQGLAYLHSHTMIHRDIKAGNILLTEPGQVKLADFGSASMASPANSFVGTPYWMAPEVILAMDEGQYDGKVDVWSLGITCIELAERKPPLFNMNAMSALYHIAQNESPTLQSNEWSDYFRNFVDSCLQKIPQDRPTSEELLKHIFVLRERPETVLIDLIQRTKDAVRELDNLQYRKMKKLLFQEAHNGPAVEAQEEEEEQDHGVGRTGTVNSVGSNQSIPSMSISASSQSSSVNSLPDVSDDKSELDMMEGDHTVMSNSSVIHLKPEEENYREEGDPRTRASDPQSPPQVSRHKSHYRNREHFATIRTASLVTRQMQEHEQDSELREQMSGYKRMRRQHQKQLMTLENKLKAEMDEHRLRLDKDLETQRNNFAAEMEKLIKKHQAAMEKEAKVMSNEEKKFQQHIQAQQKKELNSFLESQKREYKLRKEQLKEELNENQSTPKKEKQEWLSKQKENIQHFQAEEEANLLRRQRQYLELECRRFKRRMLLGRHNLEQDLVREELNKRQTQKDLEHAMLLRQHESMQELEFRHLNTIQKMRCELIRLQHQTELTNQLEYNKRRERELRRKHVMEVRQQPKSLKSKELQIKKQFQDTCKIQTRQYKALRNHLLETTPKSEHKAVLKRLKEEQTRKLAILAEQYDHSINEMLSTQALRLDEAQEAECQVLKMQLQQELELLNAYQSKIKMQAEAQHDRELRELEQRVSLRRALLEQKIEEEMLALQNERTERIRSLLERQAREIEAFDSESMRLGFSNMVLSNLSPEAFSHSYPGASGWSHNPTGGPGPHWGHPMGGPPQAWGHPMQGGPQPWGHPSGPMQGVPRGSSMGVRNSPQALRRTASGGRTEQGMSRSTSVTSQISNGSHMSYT

[15] = molecular target: Mitogen-activated protein kinase kinase kinase 3 (Homo sapiens) (UniProt Q99759); assay: Inhibition of DNA-tagged human MAP3K3 assessed as percent of control at 50000 nM by qPCR analysis relative to control
[16] = molecular target: Ribosomal protein S6 kinase alpha-4 (Homo sapiens) (UniProt O75676); assay: Inhibition of DNA-tagged human N-terminal RPS6KA4 kinase domain assessed as percent of control at 50000 nM by qPCR analysis relative to control
Chain of Ribosomal protein S6 kinase alpha-4 (Homo sapiens) (O75676 whole entry, looked up, the tested form may be a part): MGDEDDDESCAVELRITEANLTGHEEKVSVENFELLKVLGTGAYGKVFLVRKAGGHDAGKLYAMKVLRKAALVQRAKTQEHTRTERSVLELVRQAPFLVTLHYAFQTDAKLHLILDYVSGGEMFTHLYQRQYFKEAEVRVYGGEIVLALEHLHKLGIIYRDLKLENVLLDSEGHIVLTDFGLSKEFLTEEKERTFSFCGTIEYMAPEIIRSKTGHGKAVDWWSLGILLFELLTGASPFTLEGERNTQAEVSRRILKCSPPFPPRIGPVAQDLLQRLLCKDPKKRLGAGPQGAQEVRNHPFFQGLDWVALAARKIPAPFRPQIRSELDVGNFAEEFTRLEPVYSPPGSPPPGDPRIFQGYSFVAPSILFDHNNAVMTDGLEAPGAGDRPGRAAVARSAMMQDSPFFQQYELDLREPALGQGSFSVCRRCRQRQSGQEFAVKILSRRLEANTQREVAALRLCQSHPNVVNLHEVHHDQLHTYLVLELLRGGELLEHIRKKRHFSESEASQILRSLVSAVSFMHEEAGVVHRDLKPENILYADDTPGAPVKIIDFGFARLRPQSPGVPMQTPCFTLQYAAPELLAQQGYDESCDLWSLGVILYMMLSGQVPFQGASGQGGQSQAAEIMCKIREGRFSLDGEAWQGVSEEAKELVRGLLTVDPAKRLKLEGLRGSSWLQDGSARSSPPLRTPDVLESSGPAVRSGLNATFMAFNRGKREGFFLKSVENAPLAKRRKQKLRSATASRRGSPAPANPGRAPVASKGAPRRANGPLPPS

[17] = molecular target: Serine/threonine-protein kinase D3 (Homo sapiens) (UniProt O94806); assay: Inhibition of DNA-tagged human PRKD3 assessed as percent of control at 50000 nM by qPCR analysis relative to control
[18] = molecular target: Serine/threonine-protein kinase 38-like (Homo sapiens) (UniProt Q9Y2H1); assay: Inhibition of DNA-tagged human NDR2 assessed as percent of control at 50000 nM by qPCR analysis relative to control
[19] = molecular target: Serine/threonine-protein kinase BRSK1 (Homo sapiens) (UniProt Q8TDC3); assay: Inhibition of DNA-tagged human BRSK1 assessed as percent of control at 50000 nM by qPCR analysis relative to control
[20] = molecular target: Cyclin-dependent kinase 15 (Homo sapiens) (UniProt Q96Q40); assay: Inhibition of DNA-tagged human PFTAIRE2 assessed as percent of control at 50000 nM by qPCR analysis relative to control
[21] = molecular target: Vascular endothelial growth factor receptor 1 (Homo sapiens) (UniProt P17948); assay: Inhibition of DNA-tagged human FLT1 assessed as percent of control at 50000 nM by qPCR analysis relative to control
[22] = tested on: Receptor-type tyrosine-protein kinase FLT3 (Homo sapiens), P36888 [D835H]; assay: Inhibition of DNA-tagged human FLT3 D835H mutant assessed as percent of control at 50000 nM by qPCR analysis relative to control
[23] = molecular target: STE20/SPS1-related proline-alanine-rich protein kinase (Homo sapiens) (UniProt Q9UEW8); assay: Inhibition of DNA-tagged human STK39 assessed as percent of control at 50000 nM by qPCR analysis relative to control
[24] = molecular target: Serine/threonine-protein kinase 3 (Homo sapiens) (UniProt Q13188); assay: Inhibition of DNA-tagged human MST2 assessed as percent of control at 50000 nM by qPCR analysis relative to control
[25] = molecular target: Dual specificity mitogen-activated protein kinase kinase 7 (Homo sapiens) (UniProt O14733); assay: Inhibition of DNA-tagged human MKK7 assessed as percent of control at 50000 nM by qPCR analysis relative to control
Chain of Dual specificity mitogen-activated protein kinase kinase 7 (Homo sapiens) (O14733 whole entry): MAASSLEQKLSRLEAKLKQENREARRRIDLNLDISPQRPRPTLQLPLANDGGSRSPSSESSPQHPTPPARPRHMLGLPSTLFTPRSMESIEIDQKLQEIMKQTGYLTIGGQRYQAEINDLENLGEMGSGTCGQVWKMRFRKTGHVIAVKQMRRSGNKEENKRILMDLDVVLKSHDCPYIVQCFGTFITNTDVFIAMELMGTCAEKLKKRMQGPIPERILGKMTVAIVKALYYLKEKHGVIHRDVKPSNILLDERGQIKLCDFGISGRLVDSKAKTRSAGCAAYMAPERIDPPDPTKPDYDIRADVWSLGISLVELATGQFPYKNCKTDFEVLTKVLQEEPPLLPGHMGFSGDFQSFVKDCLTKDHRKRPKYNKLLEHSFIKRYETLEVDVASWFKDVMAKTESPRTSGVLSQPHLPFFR

[26] = molecular target: Serine/threonine-protein kinase NIM1 (Homo sapiens) (UniProt Q8IY84); assay: Inhibition of DNA-tagged human NIM1 assessed as percent of control at 50000 nM by qPCR analysis relative to control
[27] = tested on: Hepatocyte growth factor receptor (Homo sapiens), P08581 [Y1235D]; assay: Inhibition of DNA-tagged human MET Y1235D mutant assessed as percent of control at 50000 nM by qPCR analysis relative to control
[28] = tested on: Tyrosine-protein kinase ABL1 (Homo sapiens), P00519 [T315I]; assay: Inhibition of DNA-tagged phosphorylated human ABL1 T315I mutant assessed as percent of control at 50000 nM by qPCR analysis relative to control
[29] = molecular target: Casein kinase I isoform gamma-3 (Homo sapiens) (UniProt Q9Y6M4); assay: Inhibition of DNA-tagged human CSNK1G3 assessed as percent of control at 50000 nM by qPCR analysis relative to control

Compound: CN1C(=O)/C(=C2/C(=O)Nc3ccccc32)c2ccccc21
- Activity [1]: 98%
- Activity [2]: 100%
- Activity [3]: 89%
- Activity [4]: 89%
- Activity [5]: 95%
- Activity [6]: 100%
- Activity [7]: 87%
- Activity [8]: 94%
- Activity [9]: 75%
- Activity [10]: 78%
- Activity [11]: 88%
- Activity [12]: 100%
- Activity [13]: 84%
- Activity [14]: 87%
- Activity [15]: 94%
- Activity [16]: 82%
- Activity [17]: 94%
- Activity [18]: 100%
- Activity [19]: 94%
- Activity [20]: 88%
- Activity [21]: 93%
- Activity [22]: 100%
- Activity [23]: 78%
- Activity [24]: 99%
- Activity [25]: 75%
- Activity [26]: 86%
- Activity [27]: 99%
- Activity [28]: 98%
- Activity [29]: 90%
